How the values were obtained:
Type in all cases: in vivo
[1] = test system: Oryza sativa (ORYSA, Rice); assay: Glasshouse herbicide test, Table B1 (crop damage); conditions: POST Application, evaluated after 14 days
[2] = test system: Panicum miliaceum (PANMVI); assay: Glasshouse herbicide test, Table B1; conditions: POST Application, evaluated after 14 days
Sinapis arvensis (SINAR) = assay: Glasshouse herbicide test, Table B1; conditions: POST Application, evaluated after 14 days
[3] = test system: Amaranthus retoflexus (AMARE); assay: Glasshouse pre-/post-emergence herbicide test, Table B2; conditions: 130 g/h, evaluated after 13 days
Procedure: (§1) Seeds of a variety of test species are sown in standard soil in pots Amaranthus retoflexus (AMARE), Setaria faberi (SETFA), Echinochloa crus-galli (ECHCG), Ipomoea hederacea (IPOHE)). After cultivation for one day (pre-emergence) or after 8 days cultivation (post-emergence) under controlled conditions in a glasshouse (at 24/16° C., day/night; 14 hours light; 65% humidity), the plants are sprayed with an aqueous spray solution derived from the formulation of the technical active ingredient in acetone/water (50:50) solution containing 0.5% Tween 20 (polyoxyethelyene sorbitan monolaurate, CAS RN 9005-64-5). Compounds are applied at 130 g/h unless otherwise indicated. The test plants are then grown in a glasshouse under controlled conditions in a glasshouse (at 24/16° C., day/night; 14 hours light; 65% humidity) and watered twice daily. After 13 days for pre and post-emergence, the test is evaluated for the percentage damage caused to the plant. The biological activities are shown in the following table on a five-point scale (5=80-100%; 4=60-79%; 3=40-59%; 2=20-39%; 1=0-19%).

Setaria faberi (SETFA) = assay: as above; conditions: 130 g/h, evaluated after 13 days
Procedure: as §1

[4] = test system: Echinochloa crus-galli (ECHCG); assay: as above; conditions: 130 g/h, evaluated after 13 days
Procedure: as §1

[5] = test system: Ipomoea hederacea (IPOHE); assay: as above; conditions: 130 g/h, evaluated after 13 days
Procedure: as §1

[6] = test system: Euphorbia heterophylla (EPHHIL); assay: Glasshouse herbicide test, Table B1; conditions: POST Application, evaluated after 14 days

Compound | ORYSA damage to plant (100=total damage; 0=no damage) ([1]; rate 30 g/ha) | ORYSA damage to plant (100=total damage; 0=no damage) ([1]; rate 130 g/ha) | ORYSA damage to plant (100=total damage; 0=no damage) ([1]; rate 250 g/ha) | PANMI damage to plant (100=total damage; 0=no damage) ([2]; rate 30 g/ha) | PANMI damage to plant (100=total damage; 0=no damage) ([2]; rate 130 g/ha) | PANMI damage to plant (100=total damage; 0=no damage) ([2]; rate 250 g/ha) | SINAR damage to plant (100=total damage; 0=no damage) (Sinapis arvensis (SINAR); rate 30 g/ha) | SINAR damage to plant (100=total damage; 0=no damage) (Sinapis arvensis (SINAR); rate 130 g/ha) | SINAR damage to plant (100=total damage; 0=no damage) (Sinapis arvensis (SINAR); rate 250 g/ha) | AMARE percentage damage, five-point scale ([3]; POST Application) | AMARE percentage damage, five-point scale ([3]; PRE Application) | SETFA percentage damage, five-point scale (Setaria faberi (SETFA); POST Application) | SETFA percentage damage, five-point scale (Setaria faberi (SETFA); PRE Application) | ECHCG percentage damage, five-point scale ([4]; POST Application) | ECHCG percentage damage, five-point scale ([4]; PRE Application) | IPOHE percentage damage, five-point scale ([5]; POST Application) | IPOHE percentage damage, five-point scale ([5]; PRE Application) | EPHHL damage to plant (100=total damage; 0=no damage) ([6]; rate 30 g/ha) | EPHHL damage to plant (100=total damage; 0=no damage) ([6]; rate 130 g/ha) | EPHHL damage to plant (100=total damage; 0=no damage) ([6]; rate 250 g/ha)
Cn1nnnc1NC(=O)c1ccc(OC(F)(F)F)c(NC(=O)C2CCOCC2)c1Cl [Compound 1.001, N-[2-chloro-3-[(1-methyltetrazol-5-yl)carbamoyl]-6-(trifluoromethoxy)phenyl]-tetrahydropyran-4-carboxamide] | 0 | 0 | 0 | 90 | 100 | 100 | 100 | 100 | 100 | 5 (5=80-100%) | 5 (5=80-100%) | 5 (5=80-100%) | 5 (5=80-100%) | 5 (5=80-100%) | 5 (5=80-100%) | 5 (5=80-100%) | 4 (4=60-79%) | 100 | 100 | 100
Cn1nnnc1NC(=O)c1ccc(OC(F)F)c(NC(=O)C2CCOCC2)c1Cl [Compound 1.002, N-[2-chloro-6-(difluoromethoxy)-3-[(1-methyltetrazol-5-yl)carbamoyl]phenyl]tetrahydropyran-4-carboxamide] | 0 | 10 | 20 | 90 | 100 | 100 | 90 | 100 | 100 | 5 (5=80-100%) | 5 (5=80-100%) | 5 (5=80-100%) | 5 (5=80-100%) | 5 (5=80-100%) | 5 (5=80-100%) | 4 (4=60-79%) | 5 (5=80-100%) | 90 | 100 | 100
Cn1nnnc1NC(=O)c1ccc(OC(F)(F)F)c(NC(=O)C2(C)CCOCC2)c1Cl [Compound 1.007] | – | – | – | – | – | – | – | – | – | 5 (5=80-100%) | 5 (5=80-100%) | 5 (5=80-100%) | 1 (1=0-19%) | 5 (5=80-100%) | 2 (2=20-39%) | – | 3 (3=40-59%) | – | – | –
Cn1nnnc1NC(=O)c1ccc(OC(F)F)c(NC(=O)C2(C)CCOCC2)c1Cl [Compound 1.009] | – | – | – | – | – | – | – | – | – | 5 (5=80-100%) | 5 (5=80-100%) | 2 (2=20-39%) | 1 (1=0-19%) | 4 (4=60-79%) | 1 (1=0-19%) | 4 (4=60-79%) | 2 (2=20-39%) | – | – | –
Cc1c(C(=O)Nc2nnnn2C)ccc(OC(F)(F)F)c1NC(=O)C1CCOCC1 [Compound 1.010] | – | – | – | – | – | – | – | – | – | 4 (4=60-79%) | 5 (5=80-100%) | 5 (5=80-100%) | 2 (2=20-39%) | 5 (5=80-100%) | 3 (3=40-59%) | 4 (4=60-79%) | 2 (2=20-39%) | – | – | –
CCn1nnnc1NC(=O)c1ccc(OC(F)(F)F)c(NC(=O)C2CCOCC2)c1Cl [Compound 1.011] | – | – | – | – | – | – | – | – | – | 5 (5=80-100%) | 5 (5=80-100%) | 5 (5=80-100%) | 5 (5=80-100%) | 5 (5=80-100%) | 5 (5=80-100%) | 5 (5=80-100%) | 5 (5=80-100%) | – | – | –
CCn1nnnc1NC(=O)c1ccc(OC(F)F)c(NC(=O)C2CCOCC2)c1Cl [Compound 1.012] | – | – | – | – | – | – | – | – | – | 5 (5=80-100%) | 4 (4=60-79%) | 5 (5=80-100%) | 3 (3=40-59%) | 5 (5=80-100%) | 5 (5=80-100%) | 4 (4=60-79%) | 4 (4=60-79%) | – | – | –
